Assay results published in ChEMBL document CHEMBL1201862, “PubChem BioAssay data set” (2004).
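Where inhibition never reached the appropriate level, the endpoint shown equals the highest concentration tested. Otherwise, values were interpolated linearly from a five-concentration, 48-hour dose response in 96-well plates. Here, GI50 denotes the concentration required for 50% inhibition of growth.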 The source made the active and inactive calls. Cut-off read from the data, not from the text of the source: active = GI50 up to about 1.1 µM and inactive = higher.

What was measured:
Assay in all cases: growth of human tumour cells (NCI), 48 h
NCI-H23 = system: NCI-H23
UACC-257 = system: UACC-257
Malme-3M = system: Malme-3M
UACC-62 = system: UACC-62
DU-145 = system: DU-145
HCT-116 = system: HCT-116
Hs-578T = system: Hs-578T
786-0 = system: 786-0
A498 = system: A498
MDA-MB-231 = system: MDA-MB-231
HCT-15 = system: HCT-15
SF-268 = system: SF-268
COLO 205 = system: COLO 205
SK-MEL-5 = system: SK-MEL-5
OVCAR-5 = system: OVCAR-5
T47D = system: T47D
KM12 = system: KM12
SR = system: SR
IGROV-1 = system: IGROV-1
SW-620 = system: SW-620
K562 = system: K562
MCF7 = system: MCF7
SNB-19 = system: SNB-19
A549 = system: A549
NCI-H522 = system: NCI-H522
HOP-62 = system: HOP-62
M14 = system: M14
MOLT-4 = system: MOLT-4
LOX IMVI = system: LOX IMVI
SN12C = system: SN12C
RXF 393 = system: RXF 393
MDA-MB-435 = system: MDA-MB-435
NCI-H226 = system: NCI-H226
HT-29 = system: HT-29
UO-31 = system: UO-31
BT-549 = system: BT-549
SK-MEL-2 = system: SK-MEL-2
SF-295 = system: SF-295
HL-60 = system: HL-60
RPMI-8226 = system: RPMI-8226
SK-OV-3 = system: SK-OV-3
OVCAR-8 = system: OVCAR-8
SF-539 = system: SF-539
OVCAR-4 = system: OVCAR-4
NCI/ADR-RES = system: NCI/ADR-RES
ACHN = system: ACHN
CAKI-1 = system: CAKI-1
U-251 = system: U-251
HOP-92 = system: HOP-92
OVCAR-3 = system: OVCAR-3
SK-MEL-28 = system: SK-MEL-28
MDA-N = system: MDA-N
TK-10 = system: TK-10
EKVX = system: EKVX
PC-3 = system: PC-3
SNB-75 = system: SNB-75
NCI-H460 = system: NCI-H460
HCC 2998 = system: HCC 2998
CCRF-CEM = system: CCRF-CEM

Cn1c2c(c3ccccc31)CCN1C(=O)C3SC21C1C(=O)N(c2ccccc2)C(=O)C31 (configuration not stated)
GI50 (NCI-H23): > 100 µM (inactive) | GI50 (UACC-257): 20 µM (inactive) | GI50 (Malme-3M): > 100 µM (inactive) | GI50 (UACC-62): 21.5 µM (inactive) | GI50 (DU-145): > 100 µM (inactive) | GI50 (HCT-116): > 100 µM (inactive) | GI50 (Hs-578T): > 100 µM (inactive) | GI50 (786-0): > 100 µM (inactive) | GI50 (A498): 26.4 µM (inactive) | GI50 (MDA-MB-231): > 100 µM (inactive) | GI50 (HCT-15): > 100 µM | GI50 (SF-268): > 100 µM (inactive) | GI50 (COLO 205): 41.8 µM (inactive) | GI50 (SK-MEL-5): 20.4 µM (inactive) | GI50 (OVCAR-5): > 100 µM (inactive) | GI50 (T47D): > 100 µM (inactive) | GI50 (KM12): > 100 µM (inactive) | GI50 (SR): 35.3 µM (inactive) | GI50 (IGROV-1): > 100 µM (inactive) | GI50 (SW-620): 36.8 µM (inactive) | GI50 (K562): 40.4 µM (inactive) | GI50 (MCF7): 30.4 µM (inactive) | GI50 (SNB-19): > 100 µM (inactive) | GI50 (A549): > 100 µM (inactive) | GI50 (NCI-H522): > 100 µM (inactive) | GI50 (HOP-62): > 100 µM (inactive) | GI50 (M14): > 100 µM (inactive) | GI50 (MOLT-4): 38.5 µM (inactive) | GI50 (LOX IMVI): > 100 µM (inactive) | GI50 (SN12C): > 100 µM (inactive) | GI50 (RXF 393): > 100 µM (inactive) | GI50 (MDA-MB-435): > 100 µM (inactive) | GI50 (NCI-H226): 40.3 µM (inactive) | GI50 (HT-29): > 100 µM (inactive) | GI50 (UO-31): > 100 µM (inactive) | GI50 (BT-549): > 100 µM (inactive) | GI50 (SK-MEL-2): 0.0256 µM (active) | GI50 (SF-295): > 100 µM (inactive) | GI50 (HL-60): 25 µM (inactive) | GI50 (RPMI-8226): 38.1 µM (inactive) | GI50 (SK-OV-3): > 100 µM (inactive) | GI50 (OVCAR-8): > 100 µM (inactive) | GI50 (SF-539): 39.7 µM (inactive) | GI50 (OVCAR-4): > 100 µM (inactive) | GI50 (NCI/ADR-RES): > 100 µM (inactive) | GI50 (ACHN): 33 µM (inactive) | GI50 (CAKI-1): > 100 µM (inactive) | GI50 (U-251): > 100 µM (inactive) | GI50 (HOP-92): > 100 µM (inactive) | GI50 (OVCAR-3): > 100 µM (inactive) | GI50 (SK-MEL-28): 25.4 µM (inactive) | GI50 (MDA-N): > 100 µM (inactive) | GI50 (TK-10): 23.8 µM (inactive) | GI50 (EKVX): > 100 µM (inactive)

CCOC(=O)Cn1nc2ccc(Nc3nc4ccccc4nc3C(=O)OCC)cc2n1
GI50 (NCI-H23): 76.6 µM (inactive) | GI50 (UACC-257): > 100 µM (inactive) | GI50 (Malme-3M): 45.6 µM (inactive) | GI50 (UACC-62): 66.8 µM (inactive) | GI50 (PC-3): 98.4 µM (inactive) | GI50 (DU-145): > 100 µM (inactive) | GI50 (HCT-116): 55 µM (inactive) | GI50 (Hs-578T): 33.9 µM (inactive) | GI50 (786-0): 33.4 µM (inactive) | GI50 (A498): 60.1 µM (inactive) | GI50 (HCT-15): > 100 µM | GI50 (SF-268): 47.4 µM (inactive) | GI50 (SNB-75): 16.8 µM (inactive) | GI50 (COLO 205): > 100 µM (inactive) | GI50 (SK-MEL-5): > 100 µM (inactive) | GI50 (OVCAR-5): > 100 µM (inactive) | GI50 (T47D): 37.5 µM (inactive) | GI50 (KM12): > 100 µM (inactive) | GI50 (SR): > 100 µM (inactive) | GI50 (IGROV-1): 69.7 µM (inactive) | GI50 (SW-620): > 100 µM (inactive) | GI50 (K562): > 100 µM (inactive) | GI50 (MCF7): 76.4 µM (inactive) | GI50 (SNB-19): 34 µM (inactive) | GI50 (NCI-H460): > 100 µM (inactive) | GI50 (A549): > 100 µM (inactive) | GI50 (HCC 2998): 83 µM (inactive) | GI50 (NCI-H522): 57 µM (inactive) | GI50 (HOP-62): 68.7 µM (inactive) | GI50 (M14): > 100 µM (inactive) | GI50 (MOLT-4): > 100 µM (inactive) | GI50 (LOX IMVI): > 100 µM (inactive) | GI50 (SN12C): > 100 µM (inactive) | GI50 (RXF 393): 23.6 µM (inactive) | GI50 (MDA-MB-435): > 100 µM (inactive) | GI50 (NCI-H226): 59.8 µM (inactive) | GI50 (HT-29): 42 µM (inactive) | GI50 (UO-31): 20.8 µM (inactive) | GI50 (BT-549): > 100 µM (inactive) | GI50 (SK-MEL-2): 54.6 µM (inactive) | GI50 (SF-295): 45.1 µM (inactive) | GI50 (HL-60): > 100 µM (inactive) | GI50 (RPMI-8226): > 100 µM (inactive) | GI50 (SK-OV-3): 49.3 µM (inactive) | GI50 (OVCAR-8): 58.2 µM (inactive) | GI50 (SF-539): 23.5 µM (inactive) | GI50 (OVCAR-4): 42.8 µM (inactive) | GI50 (NCI/ADR-RES): 54.6 µM (inactive) | GI50 (ACHN): > 100 µM (inactive) | GI50 (CCRF-CEM): > 100 µM (inactive) | GI50 (CAKI-1): > 100 µM (inactive) | GI50 (U-251): 44.4 µM (inactive) | GI50 (HOP-92): 31.1 µM (inactive) | GI50 (OVCAR-3): 63.4 µM (inactive) | GI50 (SK-MEL-28): > 100 µM (inactive) | GI50 (MDA-N): > 100 µM (inactive) | GI50 (TK-10): 38.4 µM (inactive) | GI50 (EKVX): 52 µM (inactive)
